Data on 20 molecules can be found in patent US8785429B2, “Dihydropyrrolonaphthyridinone compounds as inhibitors of JAK” (Takeda Pharmaceutical Company Limited, priority 2009, dated 2014).

Test [1] addresses T1, JAK3 (Homo sapiens, UniProt P52333).
T1 construct: purchased Invitrogen
T1 sequence (P52333 1-1124): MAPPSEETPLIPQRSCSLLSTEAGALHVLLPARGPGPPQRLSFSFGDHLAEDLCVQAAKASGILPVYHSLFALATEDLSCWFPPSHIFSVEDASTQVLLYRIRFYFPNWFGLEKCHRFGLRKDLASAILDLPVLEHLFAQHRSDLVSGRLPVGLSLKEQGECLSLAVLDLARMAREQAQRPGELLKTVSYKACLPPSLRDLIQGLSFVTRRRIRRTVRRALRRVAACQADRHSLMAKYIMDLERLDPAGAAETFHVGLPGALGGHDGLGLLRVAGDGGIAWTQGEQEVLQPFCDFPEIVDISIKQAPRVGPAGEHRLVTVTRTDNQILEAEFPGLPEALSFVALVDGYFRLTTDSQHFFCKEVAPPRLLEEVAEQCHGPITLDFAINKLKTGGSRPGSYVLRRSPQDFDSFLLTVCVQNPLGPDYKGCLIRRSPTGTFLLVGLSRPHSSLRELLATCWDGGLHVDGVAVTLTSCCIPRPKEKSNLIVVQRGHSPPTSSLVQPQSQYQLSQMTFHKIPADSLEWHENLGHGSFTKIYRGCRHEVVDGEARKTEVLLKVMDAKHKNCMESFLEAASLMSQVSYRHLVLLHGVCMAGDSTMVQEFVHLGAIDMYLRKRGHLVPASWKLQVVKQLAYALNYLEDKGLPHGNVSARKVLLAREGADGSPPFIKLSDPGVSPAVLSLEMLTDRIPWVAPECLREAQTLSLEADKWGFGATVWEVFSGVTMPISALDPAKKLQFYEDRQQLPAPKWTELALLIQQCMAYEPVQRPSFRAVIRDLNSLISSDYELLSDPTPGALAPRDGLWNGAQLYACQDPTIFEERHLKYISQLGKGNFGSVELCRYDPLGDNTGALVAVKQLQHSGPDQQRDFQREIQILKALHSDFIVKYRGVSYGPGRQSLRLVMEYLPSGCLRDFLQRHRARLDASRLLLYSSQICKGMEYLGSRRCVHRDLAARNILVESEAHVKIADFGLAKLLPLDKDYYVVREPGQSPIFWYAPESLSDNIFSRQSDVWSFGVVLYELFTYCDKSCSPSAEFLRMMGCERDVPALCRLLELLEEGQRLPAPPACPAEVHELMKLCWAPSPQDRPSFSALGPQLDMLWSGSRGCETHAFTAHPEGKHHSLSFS
Put plainly: Assay for JAK3 Inhibition (phosphorylation of FAM-labeled substrate, Caliper LC-3000). In kind it is biochemical. The settings on record: −log10(IC50), IC50 is the molar concentration at 50% inhibition; read-out: JAK3 pIC50 (converted). As for the experimental part: (§1) A compound's ability to inhibit JAK activity may be assessed using a variety of methods, including in vitro and in vivo assays. The following in vitro assays measure a test compound's ability to inhibit JAK2- and JAK3-mediated phosphorylation of FAM-labeled JAK-specific substrates.
(§2) Purified JAK2 and JAK3 proteins were purchased from Invitrogen. JAK2 and JAK3 inhibition is determined using a black 384-well-plate format in buffer containing 50 mM HEPES, 10 mM NaCl, 10 mM MgCl2, 0.2 mM EDTA, 0.01% EDA (Brij® 35), 1 mM DTT, 0.1 mg/mL BSA at pH 7.3. Each test compound is prepared in DMSO using 2-fold serial dilutions for 11 data points and is added to the buffer so that each dilution contains 3% DMSO.
To each well is added 2 μL of 3 μM 5FAM-KKKKEEIYFFFG-NH2 and 15 μM ATP (in buffer), 2 μL of diluted test compound (3% DMSO in medium), and 2 μL of 1.2 nM JAK3 in buffer. The reaction mixture is incubated at room temperature for 60 min and is quenched by adding 50 mM HEPES, 30 mM EDTA, and 0.1% Tx-100 (pH 7.3). To quantify the fluorescent-labeled substrate and product following reaction, the test plate is loaded on a Caliper LC-3000, which measures percent of conversion by microfluidic-based separation.
(§3) Corresponding IC50 values are calculated by non-linear curve fitting of the compound concentrations and percent of inhibition to the standard IC50 equation.

Test [2] has as its target T2, JAK2 (Homo sapiens, UniProt O60674).
T2 construct: purchased Invitrogen
Put plainly: Assay for JAK2 Inhibition (phosphorylation of FAM-labeled substrate, Caliper LC-3000). It is filed as biochemical. To be noted: −log10(IC50), IC50 is the molar concentration at 50% inhibition; read-out: JAK2 pIC50 (converted). The procedure: as §1, §2
To each well is added 2 μL of 3 μM 5FAM-KKKKEEIYFFFG-NH2 and 45 μM ATP (in buffer), 2 μL of diluted test compound (3% DMSO in medium), and 2 μL of 0.6 nM JAK2 in buffer. The reaction mixture is incubated at room temperature for 60 min and is quenched by adding 50 mM HEPeX, 30 mM EDTA, and 0.1% Tx-100 (pH 7.3). To quantify the fluorescent-labeled substrate and product following reaction, the test plate is loaded on a Caliper LC-3000, which measures percent of conversion by microfluidic-based separation.
as §3

T2 sequence (O60674 whole entry): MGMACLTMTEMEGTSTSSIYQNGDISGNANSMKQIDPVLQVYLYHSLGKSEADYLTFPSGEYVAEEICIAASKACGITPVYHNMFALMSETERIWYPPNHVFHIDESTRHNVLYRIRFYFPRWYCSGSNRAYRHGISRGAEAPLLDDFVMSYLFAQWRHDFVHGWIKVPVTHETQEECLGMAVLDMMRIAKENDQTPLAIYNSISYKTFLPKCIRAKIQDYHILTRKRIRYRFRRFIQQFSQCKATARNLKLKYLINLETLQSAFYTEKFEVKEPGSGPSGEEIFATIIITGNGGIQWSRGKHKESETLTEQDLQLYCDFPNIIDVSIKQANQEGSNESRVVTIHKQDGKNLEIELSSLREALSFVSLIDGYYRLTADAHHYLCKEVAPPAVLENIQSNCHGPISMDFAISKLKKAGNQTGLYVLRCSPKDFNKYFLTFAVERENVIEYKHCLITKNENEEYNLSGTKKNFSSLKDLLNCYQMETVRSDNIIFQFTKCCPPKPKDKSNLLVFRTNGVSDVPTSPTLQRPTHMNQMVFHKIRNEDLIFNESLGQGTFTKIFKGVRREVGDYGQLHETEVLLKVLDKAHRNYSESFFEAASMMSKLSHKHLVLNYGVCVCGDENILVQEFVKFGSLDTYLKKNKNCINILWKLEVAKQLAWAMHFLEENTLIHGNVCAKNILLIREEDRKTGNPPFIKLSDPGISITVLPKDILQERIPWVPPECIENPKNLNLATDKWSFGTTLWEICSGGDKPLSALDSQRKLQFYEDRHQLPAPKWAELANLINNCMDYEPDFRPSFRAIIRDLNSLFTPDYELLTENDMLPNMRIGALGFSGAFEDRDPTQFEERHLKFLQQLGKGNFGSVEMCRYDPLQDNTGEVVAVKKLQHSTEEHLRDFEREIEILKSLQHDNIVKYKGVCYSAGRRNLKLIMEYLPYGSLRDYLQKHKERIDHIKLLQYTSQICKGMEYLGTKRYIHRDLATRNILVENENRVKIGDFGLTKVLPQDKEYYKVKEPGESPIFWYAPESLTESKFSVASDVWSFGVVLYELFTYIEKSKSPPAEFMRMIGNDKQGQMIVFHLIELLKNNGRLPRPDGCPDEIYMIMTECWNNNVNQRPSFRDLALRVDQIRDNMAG

With `CC(C)[C@H](C(=O)Nc1cccc(C#N)c1)N1Cc2c(Cl)cnc3[nH]cc(c23)C1=O` [Example 36, (R)-2-(6-chloro-3-oxopyrrolo[4,3,2-de][2,6]naphthyridin-4(1H,3H,5H)-yl)-N-(3-cyanophenyl)-3-methylbutanamide], the results for the IC50 in test [1] and in test [2] were 126 nM and 1000 nM, respectively.

`CC(C)[C@H](C(=O)N1CCCC1)N1Cc2ccnc3[nH]cc(c23)C1=O` [Example 20, (R)-4-(3-methyl-1-oxo-1-(pyrrolidin-1-yl)butan-2-yl)-4,5-dihydropyrrolo[4,3,2-de][2,6]naphthyridin-3(1H)-one]: the figures for the IC50 in test [1] and in test [2] were 79.4 nM and 1580 nM, respectively.

Consider `CC[C@H](C(=O)N1CCN(c2ccccn2)CC1)N1Cc2ccnc3[nH]cc(c23)C1=O` [Example 64, (R)-4-(1-oxo-1-(4-(pyridin-2-yl)piperazin-1-yl)butan-2-yl)-4,5-dihydropyrrolo[4,3,2-de][2,6]naphthyridin-3(1 H)-one], for which the IC50 was 2510 nM in test [1] and 20000 nM in test [2].

Regarding `CC[C@H](C(=O)NC[C@H](O)CO)N1Cc2ccnc3[nH]cc(c23)C1=O` [Example 71, (R)—N—((S)-2,3-dihydroxypropyl)-2-(3-oxopyrrolo[4,3,2-de][2,6]naphthyridin-4(1H,3H,5H)-yl)butanamide], the IC50 in test [1] is 794 nM; in test [2], 5010 nM.

Take `O=C1c2ccnc3[nH]cc(c23)CN1C1CCNCC1` [Example 2, 4-(piperidin-4-yl)-3,4-dihydropyrrolo[4,3,2-de][2,6]naphthyridin-5(1H)-one]: the IC50 in test [1] was 3980 nM; in test [2], 6310 nM.

With `CC[C@H](C(=O)N1CCC(COC)C1)N1Cc2ccnc3[nH]cc(c23)C1=O` (stereo partly drawn) [Example 60, 4-((2R)-1-(3-(methoxymethyl)pyrrolidin-1-yl)-1-oxobutan-2-yl)-4,5-dihydropyrrolo[4,3,2-de][2,6]naphthyridin-3(1 H)-one], the IC50 in test [1] is 794 nM; in test [2] it was 10000 nM.

For the molecule `CC[C@H](C)[C@H](C(=O)NC1CCCC1)N1Cc2ccnc3[nH]cc(c23)C1=O` [Example 24, (2R,3S)—N-cyclopentyl-3-methyl-2-(3-oxopyrrolo[4,3,2-de][2,6]naphthyridin-4(1H,3H,5H)-yl)pentanamide], the figures for the IC50 in test [1] and in test [2] were 1580 nM and 12600 nM, respectively.

For the molecule `CCC1(N2Cc3c[nH]c4nccc(c34)C2=O)CCN(c2ccncn2)CC1` [Example 17, 4-(4-ethyl-1-(pyrimidin-4-yl)piperidin-4-yl)-3,4-dihydropyrrolo[4,3,2-de][2,6]naphthyridin-5(1H)-one], the IC50 in test [1] is 12.6 nM; in test [2], 5.01 nM.

As to `CC(C)(C)[C@H](C(=O)NCCC#N)N1Cc2c(Cl)cnc3[nH]cc(c23)C1=O` [Example 40, (R)-2-(6-chloro-3-oxopyrrolo[4,3,2-de][2,6]naphthyridin-4(1H,3H,5H)-yl)-N-(2-cyanoethyl)-3,3-dimethylbutanamide], the IC50 was 50.1 nM in test [1] and 1260 nM in test [2].

Take `CC1(N2Cc3c[nH]c4nccc(c34)C2=O)CCN(C(=O)CC#N)CC1` [Example 6, 3-(4-methyl-4-(5-oxopyrrolo[4,3,2-de][2,6]naphthyridin-4(1H,3H,5H)-yl)piperidin-1-yl)-3-oxopropanenitrile]: the figures for the IC50 in test [1] and in test [2] were 501 nM and 79.4 nM, respectively.

As for `CC(C)(C)[C@H](C(=O)N1CC(C#N)C1)N1Cc2ccnc3[nH]cc(c23)C1=O` [Example 82, (R)-1-(3,3-dimethyl-2-(3-oxopyrrolo[4,3,2-de][2,6]naphthyridin-4(1H,3H,5H)-yl)butanoyl)azetidine-3-carbonitrile], the figures for the IC50 in test [1] and in test [2] were 2 nM and 39.8 nM, respectively.

Take `CC(C)[C@H](C(=O)N1CCC(C#N)C1)N1Cc2c(Cl)cnc3[nH]cc(c23)C1=O` (stereo partly drawn) [Example 33, 1-((R)-2-(6-chloro-3-oxopyrrolo[4,3,2-de][2,6]naphthyridin-4(1H,3H,5H)-yl)-3-methylbutanoyl)pyrrolidine-3-carbonitrile]: the IC50 is 39.8 nM in test [1] and 794 nM in test [2].

`CC(C)[C@H](C(=O)N(C)CC#N)N1Cc2c(F)cnc3[nH]cc(c23)C1=O` [Example 79, (R)—N-(cyanomethyl)-2-(6-fluoro-3-oxopyrrolo[4,3,2-de][2,6]naphthyridin-4(1H,3H,5H)-yl)-N,3-dimethylbutanamide]: the results for the IC50 in test [1] and in test [2] were 126 nM and 2510 nM, respectively.

In the case of `CC(C)[C@H](C(=O)NOCC1CC1)N1Cc2c(F)cnc3[nH]cc(c23)C1=O` [Example 49, (R)—N-(cyclopropylmethoxy)-2-(6-fluoro-3-oxopyrrolo[4,3,2-de][2,6]naphthyridin-4(1H,3H,5H)-yl)-3-methylbutanamide], the IC50 in test [1] was 100 nM; in test [2], 2000 nM.

As for `CC(C)[C@H](C(=O)N1CC(C#N)C1)N1Cc2c(Cl)cnc3[nH]cc(c23)C1=O` [Example 39, (R)-1-(2-(6-chloro-3-oxopyrrolo[4,3,2-de][2,6]naphthyridin-4(1H,3H,5H)-yl)-3-methylbutanoyl)azetidine-3-carbonitrile], the IC50 was 2 nM in test [1] and 31.6 nM in test [2].

On to `CC[C@H](C(=O)N1CCC(C(C)(C)O)CC1)N1Cc2ccnc3[nH]cc(c23)C1=O` [Example 62, (R)-4-(1-(4-(2-hydroxypropan-2-yl)piperidin-1-yl)-1-oxobutan-2-yl)-4,5-dihydropyrrolo[4,3,2-de][2,6]naphthyridin-3(1 H)-one], for which the IC50 in test [1] is 1580 nM; in test [2], 12600 nM.

`CCC(=O)N1CCC(CC)(N2Cc3c[nH]c4nccc(c34)C2=O)CC1` [Example 16, 4-(4-ethyl-1-propionylpiperidin-4-yl)-3,4-dihydropyrrolo[4,3,2-de][2,6]naphthyridin-5(1H)-one]: the IC50 is 50.1 nM in test [1] and 10 nM in test [2].

For the molecule `CC(C)[C@H](C(=O)N(C)CCS(C)(=O)=O)N1Cc2c(F)cnc3[nH]cc(c23)C1=O` [Example 78, (R)-2-(6-fluoro-3-oxopyrrolo[4,3,2-de][2,6]naphthyridin-4(1H,3H,5H)-yl)-N,3-dimethyl-N-(2-(methylsulfonyl)ethyl)butanamide], the IC50 was 3980 nM in test [1] and 10000 nM in test [2].

`CC(C)(C)OC(=O)N1CCC(CN2Cc3c[nH]c4nccc(c34)C2=O)C1` (stereo not shown) [Example 12, Tert-Butyl 3-((5-oxopyrrolo[4,3,2-de][2,6]naphthyridin-4(1H,3H,5H)-yl)methyl)pyrrolidine-1-carboxylate]: the values for the IC50 in test [1] and in test [2] were 7940 nM and 3160 nM, respectively.

As to `O=C1c2ccnc3[nH]cc(c23)CN1CC1CCNC1` (stereo not shown) [Example 13, 4-(pyrrolidin-3-ylmethyl)-3,4-dihydropyrrolo[4,3,2-de][2,6]naphthyridine-5(1H)-one], the IC50 in test [1] is 3160 nM; in test [2], 5010 nM.
